Molecular target: T1, human glucagon receptor (Homo sapiens, UniProt P47871)
T1 construct: expressed in transfected cells; host or cells: BHK (baby hamster kidney) cells
Assay: Glucagon Binding Assay (III)
Conditions: BHK cell membranes, WGA SPA beads, 125I-glucagon; read-out: Glu Bd Assay (III) IC50
Procedure, shortened: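 Membranes from BHK cells transfected with the human receptor, prepared at 4 °C, were used in a WGA-bead scintillation proximity binding format. Plates were shaken for 4 hours, left to settle 8–48 hours and then counted. Non-specific binding was defined with 500 nM glucagon.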

T1 sequence (P47871 26-477): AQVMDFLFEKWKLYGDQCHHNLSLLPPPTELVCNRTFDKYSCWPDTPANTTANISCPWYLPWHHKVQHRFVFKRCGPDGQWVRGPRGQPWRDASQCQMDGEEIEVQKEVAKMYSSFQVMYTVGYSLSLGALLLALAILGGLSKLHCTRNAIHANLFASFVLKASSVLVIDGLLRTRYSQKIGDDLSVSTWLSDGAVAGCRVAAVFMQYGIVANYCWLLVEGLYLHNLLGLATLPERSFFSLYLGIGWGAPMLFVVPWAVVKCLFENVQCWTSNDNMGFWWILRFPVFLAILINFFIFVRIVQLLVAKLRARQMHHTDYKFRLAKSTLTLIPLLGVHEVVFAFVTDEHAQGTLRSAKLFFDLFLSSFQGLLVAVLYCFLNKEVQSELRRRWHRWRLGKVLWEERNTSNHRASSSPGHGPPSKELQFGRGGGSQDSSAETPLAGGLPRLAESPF

| IC50 | Compound |
| --- | --- |
| 536 nM | O=C(O)CCNC(=O)c1ccc(CN(Cc2cc(Cl)cc(Cl)c2)NC(=O)c2ccc(OC(F)(F)F)cc2)cc1 [Example 422, 3-{4-[N-(3,5-Dichlorobenzyl)-N′-(4-trifluoromethoxybenzoyl)hydrazinomethyl]benzoylamino}propionic acid] |
| 17 nM | O=C(O)CCNC(=O)c1ccc(CN(C(=O)Nc2cc(Br)cc(C(F)(F)F)c2)c2ccc(C3CCCCC3)cc2)cc1 [Example 394, 3-{4-[1-(4-Cyclohexylphenyl)-3-(3-bromo-5-trifluoromethylphenyl)ureidomethyl]benzoylamino}propionic acid] |
| 58 nM | CC(C)Cc1ccc(C(=O)N(Cc2ccc(C(=O)Nc3nn[nH]n3)cc2)C2CCC(C(C)(C)C)CC2)cc1 (stereo not drawn) [Example 511, 4-{[(4-tert-Butylcyclohexyl)-(4-isobutylbenzoyl)amino]methyl}-N-(2H-tetrazol-5-yl)benzamide] |
| 505 nM | O=C(Nc1nn[nH]n1)c1ccc(CN(C(=O)c2ccc(C3CCCCC3)cc2)c2ccc(C3CCCCC3)cc2)cc1 [Example 484, 4-{[(4-Cyclohexylphenyl)-(4-cyclohexylbenzoyl)amino]methyl}-N-(2H-tetrazol-5-yl)benzamide] |
| 6 nM | CC(C)(C)c1ccc(N(Cc2ccc(C(=O)Nc3nn[nH]n3)cc2)C(=O)Nc2ccc3c(c2)C(=O)N(CC2CC2)C3=O)cc1 [Example 640, 4-[1-(4-tert-Butylphenyl)-3-(N′-[cyclopropylmethyl]phthalimid-4-yl)ureidomethyl]-N-(2H-tetrazol-5-yl)benzamide] |
| 5 nM | CCCCN1C(=O)c2ccc(NC(=O)N(Cc3ccc(C(=O)Nc4nn[nH]n4)cc3)c3ccc(C4CCCCC4)cc3)cc2C1=O [Example 636, 4-[3-(N′-Butylphthalimid-4-yl)-1-(4-cyclohexylphenyl)ureidomethyl]-N-(2H-tetrazol-5-yl)benzamide] |
| 146 nM | CC(C)(C)C1CCC(N(Cc2ccc(C(=O)NCCC(=O)O)cc2)C(=O)c2cc3cc(Cl)ccc3o2)CC1 (stereo not drawn) [Example 562, 3-(4-{[(4-tert-Butylcyclohexyl)-(5-chlorobenzofuran-2-carbonyl)amino]methyl}benzoylamino)propionic acid] |
| 21 nM | O=C(Nc1nn[nH]n1)c1ccc(CN(C(=O)Nc2cc(C(F)(F)F)cc(C(F)(F)F)c2)c2ccc(C3=CCCCC3)cc2)cc1 [Example 268, 4-[3-(3,5-Bis-trifluoromethylphenyl)-1-(4-cyclohex-1-enylphenyl)ureidomethyl]-N-(2H-tetrazol-5-yl)benzamide] |
| 106 nM | CCCCc1ccc(N(Cc2ccc(C(=O)Nc3nn[nH]n3)cc2)C(=O)Nc2ccc(OC(F)(F)F)cc2)cc1 [Example 292, 4-[1-(4-Butylphenyl)-3-(4-trifluoromethoxyphenyl)ureidomethyl]-N-(2H-tetrazol-5-yl)benzamide] |
| 30 nM | CCN(c1ccccc1)S(=O)(=O)c1cccc(NC(=O)N(Cc2ccc(C(=O)NCCC(=O)O)cc2)c2ccc(C3CCCCC3)cc2)c1 [Example 265, 3-(4-{1-(4-Cyclohexylphenyl)-3-[3-(ethylphenylsulfamoyl)phenyl]ureidomethyl}benzoylamino)propionic acid] |
| 229 nM | O=C(O)CCNC(=O)c1ccc(CN(C(=O)Nc2ccc(OC(F)(F)F)cc2)[C@H]2CC[C@@H](c3ccccc3)CC2)cc1 [Example 80, 3-{4-[1-(4-cis-Phenylcyclohexyl)-3-(4-trifluoromethoxyphenyl)ureidomethyl]benzoylamino}propionic acid] |
| 169 nM | CC(NC(=O)N(Cc1ccc(C(=O)Nc2nn[nH]n2)cc1)c1ccc(C2CCCCC2)cc1)c1ccc(Cl)cc1 (single isomer, unassigned) [Example 338, 4-[3-[1-(4-Chlorophenyl)ethyl]-1-(4-cyclohexylphenyl)ureidomethyl]-N-(2H-tetrazol-5-yl)benzamide] |
| 56 nM | O=C(Nc1nn[nH]n1)c1ccc(CN(C(=O)Nc2nc3ccc(OC(F)(F)F)cc3s2)c2ccc(C3CCCCC3)cc2)cc1 [Example 341, 4-[1-(4-Cyclohexylphenyl)-3-(6-trifluoromethoxybenzothiazol-2-yl)ureidomethyl]-N-(2H-tetrazol-5-yl)benzamide] |
| 935 nM | CC(C)(C)C1CCC(N(Cc2ccc(C(=O)NCCC(=O)O)cc2)C(=O)Nc2ccccc2C(F)(F)F)CC1 (stereo not drawn) [Example 25, 3-{4-[1-(4-tert-Butylcyclohexyl)-3-(2-trifluoromethylphenyl)ureidomethyl]benzoylamino}propionic acid] |
| 2940 nM | O=C(Nc1nn[nH]n1)c1ccc(CN(CC(c2ccccc2)c2ccccc2)C(=O)/C=C/c2c(Cl)cccc2Cl)cc1 [Example 478, 4-{[[3-(2,6-Dichlorophenyl)acryloyl]-(2,2-diphenylethyl)amino]methyl}-N-(2H-tetrazol-5-yl)benzamide] |
| 302 nM | Cc1ccc(S(C)(=O)=O)cc1NC(=O)N(Cc1ccc(C(=O)Nc2nn[nH]n2)cc1)c1ccc(C2CCCCC2)cc1 [Example 261, 4-[1-(4-Cyclohexylphenyl)-3-(5-methylsulfonyl-2-methylphenyl)ureidomethyl]-N-(2H-tetrazol-5-yl)benzamide] |
| 3800 nM | COc1ccc(NC(=O)N(Cc2ccc(C(=O)NCCC(=O)O)cc2)C2CCC(C(C)(C)C)CC2)cc1 (stereo not drawn) [Example 59, 3-{4-[1-(4-tert-Butylcyclohexyl)-3-(4-methoxyphenyl)ureidomethyl]benzoylamino}propionic acid] |
| 29 nM | CC(C)(C)[C@H]1CC[C@H](N(Cc2ccc(C(=O)Nc3nn[nH]n3)cc2)C(=O)Nc2cc(C(F)(F)F)cc(C(F)(F)F)c2)CC1 [Example 375, 4-[3-(3,5-Bis(trifluoromethyl)phenyl)-1-(trans-4-tert-butylcyclohexyl)ureidomethyl]-N-(2H-tetrazol-5-yl)benzamide] |
| 327 nM | CCCCc1ccc(N(Cc2ccc(C(=O)Nc3nn[nH]n3)cc2)C(=O)Nc2cccc(S(C)(=O)=O)c2)cc1 [Example 447, 4-[1-(4-Butylphenyl)-3-(3-methylsulfonylphenyl)ureidomethyl]-N-(2H-tetrazol-5-yl)benzamide] |
| 61 nM | CS(=O)(=O)c1cccc(NC(=O)N(Cc2ccc(C(=O)Nc3nn[nH]n3)cc2)c2ccc(C3=CCCCC3)cc2)c1 [Example 310, 4-[1-(4-Cyclohex-1-enylphenyl)-3-(3-methylsulfonylphenyl)ureidomethyl]-N-(2H-tetrazol-5-yl)benzamide] |
| 87 nM | CC(=O)c1cccc(NC(=O)N(Cc2ccc(C(=O)Nc3nn[nH]n3)cc2)c2ccc(C(C)(C)C)cc2)c1 [Example 297, 4-[3-(3-Acetylphenyl)-1-(4-tert-butylphenyl)ureidomethyl]-N-(2H-tetrazol-5-yl)benzamide] |
| 23 nM | Cc1cc(NC(=O)N(Cc2ccc(C(=O)Nc3nn[nH]n3)cc2)C2CCC(C(C)(C)C)CC2)cc(C(F)(F)F)c1 (stereo not drawn) [Example 363, 4-[1-(4-tert-Butylcyclohexyl)-3-(3-methyl-5-trifluoromethylphenyl)ureidomethyl]-N-(2H-tetrazol-5-yl)benzamide] |

| Compound | IC50 |
| --- | --- |
| CC(C)(C)C1CCC(N(Cc2ccc(C(=O)Nc3nn[nH]n3)cc2)C(=O)Oc2ccc(S(C)(=O)=O)cc2)CC1 (stereo not drawn) [Example 623] | 2700 nM |
| CSc1ccc(OC(=O)N(Cc2ccc(C(=O)NCCC(=O)O)cc2)c2ccc(C3CCCCC3)cc2)cc1 [Example 418, 3-(4-{[(4-Cyclohexylphenyl)-(4-methylsulfanylphenoxycarbonyl)amino]methyl}benzoylamino)propionic acid] | 472 nM |

From patent US6875760B2 (Novo Nordisk A/S, priority 1999, dated 2005)
